Test results reported in article PMC4588179, “Antifungal Activity of 14-Helical β-Peptides against Planktonic Cells and Biofilms of Candida Species” (Pharmaceuticals, 2015).

Tests used:
[1] = test system: human red blood cells (hRBCs); assay: Hemolysis of human red blood cells; type: cell-based; conditions: red cells of human
Protocol: Table S1. Hemolysis of β-peptide 1-16, concentration of β-peptid e needed for 50% lysis of human red blood cells (hRBCs)
Peptide # Peptide Concentration at 50% Hemolysis a (HC50, µg/mL) […]
a Hemolysis assays were perfor med as previously indicated in Lee, M.R. et al., ACS Chem. Biol. (2014). Briefly, equal volumes of 2-fold dilutions of β-peptides in tris-buffered saline (TBS) were incubated with hRBCs for an hour at 37 °C. Supernatants were transferred to a new plate and absorbance was measured at 405 nm.
% hemolysis was calculated relative to positive lysis control and the concentration of peptide needed for 50% hemolysis was recorded as HC50 for that peptide. Values reported are average measurements from three independent experiments of duplicates each and the error denoted is the standard deviation. Concentration dependent hemolysis graphs can be found in Lee, M.R. et al., ACS Chem. Biol. (2014).

[2] = RP-HPLC retention time as measure of β-peptide hydrophobicity; type: physicochemical; conditions: chromatographic, analytical RP-HPLC, C18 (Waters X-bridge, 4.6 mm × 250 mm), gradient 20%–80% CH3CN in water with 0.1% TFA over 5–35 min, 1 mL/minute, 0.5 to 1 mg/mL, 50 µL injected; mean ± standard deviation of triplicate measurements
Excerpt: β-peptides were produced by microwave-assisted Fmoc synthesis at 20−40 μmol scales and purified by RP-HPLC using a C18 column. MALDI mass spectrometry was used to validate the mass of each peptide as described previously. Retention times determined by C18 RP-HPLC were used as a measure of the relative hydrophobicity of the β-peptides (Table 1). This approach has been used previously by our group and others to assess the relative hydrophobicity of different peptide structures. Preliminary antifungal activity and mammalian toxicity evaluation were reported previously for β-peptides 1–16 as planktonic MIC against C. albicans and percent hemolysis at the MIC, respectively.
Hydrophobicity of 14-helical β-peptides was characterized by measuring retention times with an analytical RP-HPLC using a C18 column (Waters, X-bridge, column dimensions 4.6 mm × 250 mm, Milford, MA, USA). The β-peptide solutions (0.5 to 1 mg/mL, 50 µL) were injected into the HPLC at a flow rate of 1 mL/minute. Retention time was characterized in triplicate with a gradient of 20%–80% CH3CN in water containing 0.1% TFA over 5–35 min.

[3] = test system: C. albicans SC5314 biofilm formation; assay: Biofilm formation in the presence of β-peptides, XTT; type: cell-based, Candida albicans; conditions: 10^6 cells/mL incubated with 2-fold dilutions of β-peptide, 37 °C, 48 h, washed, 10% or less metabolic activity vs untreated control
Protocol: C. albicans, C. glabrata, C. tropicalis, and C. parapsilosis biofilm formation in the presence of β-peptide was evaluated using a procedure used previously. Briefly, 100 μL of overnight cultures of C. albicans SC5314, C. glabrata, C. parapsilosis, and C. tropicalis adjusted to 2 × 10^6 cells/mL was added to 100 μL of two-fold serially diluted β-peptide in a 96-well plates. Peptide-free controls and cell and peptide-free controls were included for each peptide assayed and the plates were incubated at 37 °C for 48 h. After 48 h, biofilms were washed with PBS to remove non-adherent cells and the metabolic activity of biofilms grown in the presence of β-peptide was determined using XTT.
For evaluation of metabolic activities of planktonic cells and biofilms in susceptibility testing in 96-well plates, 100 μL of XTT solution was added to every well and plates were incubated at 37 °C in the dark for 1.5 h for C. albicans and 2.5 h for C. glabrata, C. parapsilosis and C. tropicalis. At the end of the incubation, 75 μL of supernatant from wells were transferred to a new plate and absorbance at 490 nm was measured. The percent metabolic activity was calculated as: Metabolic Activity (%)= (A490− A490background)/A490cell control− A490background ×100 where A490 , A490cell control , and A490background are the average absorbance values of wells containing a specific concentration of β-peptide, cell control wells without β-peptide, and media only wells, respectively. Experiments were performed in triplicate and repeated on at least two different days.

| Hydrophobicity (HPLC Retention Time, min) [2] [min] | Structure (SMILES) | Peptide Concentration at 50% Hemolysis (HC50) [1] [µg/mL] | MIC, Biofilm Formation (C. albicans) [3] [µg/mL] |
| --- | --- | --- | --- |
| 24.6 ± 0.2 | N=C(N)NCCC[C@@H](CC(N)=O)NC(=O)[C@H]1CCCC[C@@H]1NC(=O)[C@H]1CCCC[C@@H]1NC(=O)C[C@H](CCCNC(=N)N)NC(=O)[C@H]1CCCC[C@@H]1NC(=O)[C@H]1CCCC[C@@H]1NC(=O)C[C@H](CCCNC(=N)N)NC(=O)[C@H]1CCCC[C@@H]1NC(=O)[C@H]1CCCC[C@@H]1NC(=O)C[C@@H](N)Cc1ccc(O)cc1 [Peptide 15] | 73 ± 40 | – |
| 24.0 ± 0.2 | NCCCC[C@@H](CC(N)=O)NC(=O)[C@H]1CCCC[C@@H]1NC(=O)[C@H]1CCCC[C@@H]1NC(=O)C[C@H](CCCCN)NC(=O)[C@H]1CCCC[C@@H]1NC(=O)[C@H]1CCCC[C@@H]1NC(=O)C[C@H](CCCCN)NC(=O)[C@H]1CCCC[C@@H]1NC(=O)[C@H]1CCCC[C@@H]1NC(=O)C[C@@H](N)Cc1ccc(O)cc1 [Peptide 14] | 106 ± 37 | – |
| 20.4 ± 0.2 | C[C@@H](CC(=O)N[C@@H](CCCCN)CC(=O)N[C@H]1CCCC[C@@H]1C(=O)N[C@@H](C)CC(=O)N[C@@H](CCCCN)CC(=O)N[C@H]1CCCC[C@@H]1C(=O)N[C@@H](C)CC(=O)N[C@@H](CCCCN)CC(N)=O)NC(=O)[C@H]1CCCC[C@@H]1NC(=O)C[C@@H](N)Cc1ccc(O)cc1 [Peptide 9] | > 400 | – |
| 27.4 ± 0.2 | NCCCC[C@@H](CC(N)=O)NC(=O)C[C@H](Cc1ccccc1)NC(=O)[C@H]1CCCC[C@@H]1NC(=O)C[C@H](CCCCN)NC(=O)C[C@H](Cc1ccccc1)NC(=O)[C@H]1CCCC[C@@H]1NC(=O)C[C@H](CCCCN)NC(=O)C[C@H](Cc1ccccc1)NC(=O)[C@H]1CCCC[C@@H]1NC(=O)C[C@@H](N)Cc1ccc(O)cc1 [Peptide 16] | 3 ± 1 | – |
| 26.5 ± 0.2 | CC(C)[C@@H](CC(=O)N[C@@H](CCCNC(=N)N)CC(=O)N[C@H]1CCCC[C@@H]1C(=O)N[C@H](CC(=O)N[C@@H](CCCNC(=N)N)CC(=O)N[C@H]1CCCC[C@@H]1C(=O)N[C@H](CC(=O)N[C@@H](CCCNC(=N)N)CC(N)=O)C(C)C)C(C)C)NC(=O)[C@H]1CCCC[C@@H]1NC(=O)C[C@@H](N)Cc1ccc(O)cc1 [Peptide 13] | 11 ± 2 | – |
| 25.7 ± 0.1 | CC(C)[C@@H](CC(=O)N[C@@H](CCCCN)CC(=O)N[C@H]1CCCC[C@@H]1C(=O)N[C@H](CC(=O)N[C@@H](CCCCN)CC(=O)N[C@H]1CCCC[C@@H]1C(=O)N[C@H](CC(=O)N[C@@H](CCCCN)CC(N)=O)C(C)C)C(C)C)NC(=O)[C@H]1CCCC[C@@H]1NC(=O)C[C@@H](N)Cc1ccc(O)cc1 [Peptide 12] | 12 ± 6 | – |
| 24.2 ± 0.1 | CC[C@@H](CC(=O)N[C@@H](CCCNC(=N)N)CC(=O)N[C@H]1CCCC[C@@H]1C(=O)N[C@@H](CC)CC(=O)N[C@@H](CCCNC(=N)N)CC(=O)N[C@H]1CCCC[C@@H]1C(=O)N[C@@H](CC)CC(=O)N[C@@H](CCCNC(=N)N)CC(N)=O)NC(=O)[C@H]1CCCC[C@@H]1NC(=O)C[C@@H](N)Cc1ccc(O)cc1 [Peptide 11] | 79 ± 8 | – |
| 23.5 ± 0.1 | CC[C@@H](CC(=O)N[C@@H](CCCCN)CC(=O)N[C@H]1CCCC[C@@H]1C(=O)N[C@@H](CC)CC(=O)N[C@@H](CCCCN)CC(=O)N[C@H]1CCCC[C@@H]1C(=O)N[C@@H](CC)CC(=O)N[C@@H](CCCCN)CC(N)=O)NC(=O)[C@H]1CCCC[C@@H]1NC(=O)C[C@@H](N)Cc1ccc(O)cc1 [Peptide 10] | 149 ± 20 | – |

| Structure (SMILES) | Hydrophobicity (HPLC Retention Time, min) [2] [min] | Peptide Concentration at 50% Hemolysis (HC50) [1] [µg/mL] | MIC, Biofilm Formation (C. albicans) [3] [µg/mL] |
| --- | --- | --- | --- |
| C[C@@H](CC(=O)N[C@@H](CCCCN)CC(N)=O)NC(=O)[C@H]1CCCC[C@@H]1NC(=O)C[C@H](CCCCN)NC(=O)C[C@H](C)NC(=O)[C@H]1CCCC[C@@H]1NC(=O)C[C@H](CCCCN)NC(=O)C[C@H](C)NC(=O)[C@H]1CCCC[C@@H]1N [Peptide 1] | 19.3 ± 0.1 | – | – |
| NCCCC[C@@H](CC(N)=O)NC(=O)C[C@H](Cc1ccccc1)NC(=O)[C@H]1CCCC[C@@H]1NC(=O)C[C@H](CCCCN)NC(=O)C[C@H](Cc1ccccc1)NC(=O)[C@H]1CCCC[C@@H]1NC(=O)C[C@H](CCCCN)NC(=O)C[C@H](Cc1ccccc1)NC(=O)[C@H]1CCCC[C@@H]1N [Peptide 8] | 26.2 ± 0.2 | – | 8 |
| CC[C@@H](CC(=O)N[C@@H](CCCNC(=N)N)CC(N)=O)NC(=O)[C@H]1CCCC[C@@H]1NC(=O)C[C@H](CCCNC(=N)N)NC(=O)C[C@H](CC)NC(=O)[C@H]1CCCC[C@@H]1NC(=O)C[C@H](CCCNC(=N)N)NC(=O)C[C@H](CC)NC(=O)[C@H]1CCCC[C@@H]1N [Peptide 3] | 23.2 ± 0.1 | – | 32 |
| NCCCC[C@@H](CC(N)=O)NC(=O)[C@H]1CCCC[C@@H]1NC(=O)[C@H]1CCCC[C@@H]1NC(=O)C[C@H](CCCCN)NC(=O)[C@H]1CCCC[C@@H]1NC(=O)[C@H]1CCCC[C@@H]1NC(=O)C[C@H](CCCCN)NC(=O)[C@H]1CCCC[C@@H]1NC(=O)[C@H]1CCCC[C@@H]1N [Peptide 6] | 23.1 ± 0.2 | – | – |
| N=C(N)NCCC[C@@H](CC(N)=O)NC(=O)[C@H]1CCCC[C@@H]1NC(=O)[C@H]1CCCC[C@@H]1NC(=O)C[C@H](CCCNC(=N)N)NC(=O)[C@H]1CCCC[C@@H]1NC(=O)[C@H]1CCCC[C@@H]1NC(=O)C[C@H](CCCNC(=N)N)NC(=O)[C@H]1CCCC[C@@H]1NC(=O)[C@H]1CCCC[C@@H]1N [Peptide 7] | 23.8 ± 0.1 | – | 16 |
| CC[C@@H](CC(=O)N[C@@H](CCCCN)CC(N)=O)NC(=O)[C@H]1CCCC[C@@H]1NC(=O)C[C@H](CCCCN)NC(=O)C[C@H](CC)NC(=O)[C@H]1CCCC[C@@H]1NC(=O)C[C@H](CCCCN)NC(=O)C[C@H](CC)NC(=O)[C@H]1CCCC[C@@H]1N [Peptide 2] | 22.5 ± 0.2 | – | 64 |
| CC(C)[C@@H](CC(=O)N[C@@H](CCCNC(=N)N)CC(N)=O)NC(=O)[C@H]1CCCC[C@@H]1NC(=O)C[C@H](CCCNC(=N)N)NC(=O)C[C@@H](NC(=O)[C@H]1CCCC[C@@H]1NC(=O)C[C@H](CCCNC(=N)N)NC(=O)C[C@@H](NC(=O)[C@H]1CCCC[C@@H]1N)C(C)C)C(C)C [Peptide 5] | 25.4 ± 0.1 | – | 8 |
